Values of other authors in patent publication US20120294937A1, “NEW PHARMACEUTICAL DOSAGE FORM FOR THE TREATMENT OF GASTRIC ACID-RELATED DISORDERS” (NOVARTIS AG, priority 2009, published 2012).

System: stomach acid pH

NC(N)=Nc1nc(CSCCC(N)=NS(N)(=O)=O)cs1 [famotidine]
time stomach acid controlled at pH>4 (Day 1, clinical setting): 54 % of the day | percentage of time controlling stomach acid (Day 8, steady state for omeprazole reached, clinical setting): 48 % of the day
